We go through 88 molecules from a melting point compilation (Tetko et al.; mined from patent text by program, amines drawn as free bases though some values may be those of a salt).

The molecule `O=S(=O)(NCCCOc1cccc2nccn12)c1ccccc1` yielded a melting point of 155 to 156 °C. Molecule `CCOc1nn(Cc2ccc(OCc3ccc4ccccc4n3)cc2)cc1CCC(=O)O` displayed a melting point of 140 to 141 °C. Regarding `CC1(c2ccccc2)Cc2cc(CC(=O)O)c(Cl)c(Cl)c2C1=O` (stereo not drawn), the melting point lay in the range of 133 to 135 °C. `CCC(=O)N1CCC(NC(=O)Nc2ccc(Cl)c(C(F)(F)F)c2)CC1` displayed a melting point of 182 to 184 °C. Next, `O=C(c1cccs1)c1cnn2c(-c3cccs3)ccnc12`: 193 to 195 °C. Consider `CC(=O)O[C@H]1C[C@@H](n2ccc(N)nc2=O)[C@H](O)[C@@H]1O` (racemic), for which the melting point is 121 to 124 °C.

With `CCOCc1nc2c(N)nc3ccccc3c2n1NCc1ccccc1`, the melting point is 152 to 155 °C. `Nc1ccc(S(=O)(=O)c2cccc3cnccc23)cc1` registered a melting point of 207 to 209 °C.

In the case of `COC(=O)[C@@H](NC(=O)[C@H](CC(C)C)NC(=O)[C@@H](NC(=O)OCc1ccccc1)C(C)C)[C@@H](C)O`, the melting point lay in the range of 217 to 218 °C. The molecule `O=C(OC1CCCC1)c1cc([N+](=O)[O-])c(F)cc1Cl` gave a melting point of 44 to 45 °C. Regarding `O=c1c2nc[nH]c2nc2n1CCN2Cc1ccc(Cl)cc1`, the melting point fell in the range of 314 to 316 °C. Next, `COc1cc(Nc2c(C#N)cnc3cc(-c4ccc(C5OCCO5)o4)ccc23)c(Cl)cc1Cl`: 224 to 229 °C; `CS(=O)(=O)c1ccc(-n2cnc(Cl)c2-c2ccc(Cl)cc2)cc1`: 222 to 223 °C. Next, `COCCOc1cc(OC)c2c(=O)[nH]c(-c3ccc(N4C[C@@H](C)N(C(C)=O)[C@@H](C)C4)cc3)nc2c1`: 225 to 227 °C. The result for `CCOC(=O)/C(=C/c1ccccc1)OC(C)=O` reads 41 to 47 °C.

Turning to `CCCOc1nccc2c1C(c1ccccc1C(F)(F)F)C(C(=O)OCC)=C(C)N2` (stereo not drawn), the melting point was 115 to 117 °C. The result for `CCCCc1nc2c(N)nc3ccccc3c2n1CCCC(C)=O` reads 173 to 176 °C; that for `Cc1nc(-c2ccc(C(F)(F)F)cc2)oc1Sc1ccc(Cc2nn[nH]n2)cc1`, 214 °C; that for `CCOC(=O)C=Cc1ccc(OC(C)c2nc(-c3ccccc3)oc2C)c(OC)c1` (stereo not drawn), 121 to 122 °C. The result for `Clc1cncc(Cl)c1C1=NC(c2ccc(I)cc2)CO1` (stereo not drawn) reads 90 to 92 °C. With `C#CCCCC(=O)c1nc(C(C)(C)C)c(O)c(C(C)(C)C)n1`, the melting point was 64 to 66 °C. Next, `O=c1c2c(-c3ccccc3)n[nH]c2c2cccnc2n1-c1ccccc1`: above 300 °C; `CC(C(=O)C=CC1C(OC(=O)c2ccccc2)CC2OC(=O)CC21)C1C=CCC1` (mixture of isomers): 85 to 87.5 °C. The result for `O=C(O)c1cc(O)cc2cc(-c3ccc(O)cc3)oc12` reads 260 to 262 °C; that for `Cc1ccc(F)cc1C(=O)Nc1ccc(C(=O)N2Cc3ccnn3Cc3ccccc32)cn1`, 250 to 260 °C. For the molecule `Nc1cccnc1Nc1ccccc1C(=O)c1ccccc1`, the melting point lay within 91 to 93 °C. The molecule `OCC(CO)n1nnnc1S` showed a melting point of 138 °C. Next, `Cc1c(C(=O)O)sc2[nH]c(=O)c(=O)[nH]c12`: 289 to 294 °C.

`CCC(CC)Nc1cc(C)nc(Oc2c(C)cc(C)cc2C)c1NC(C)=O`: the melting point lay within 154 to 156 °C. As to `COCCOc1ccc(/C=C/C(=O)NS(=O)(=O)c2cccnc2)c(Oc2ncc(C(F)(F)F)cc2Cl)c1`, the melting point fell in the range of 165 to 167 °C.

On to `COC(c1ccc(Cl)c2nc3n(c12)CCCN3c1ccc(Cl)cc1C(F)(F)F)C1CC1` (stereo not drawn), for which the melting point lay within 208 to 209 °C. `CS(=O)(=O)Nc1cccc(OCC#N)c1` displayed a melting point of 91 to 92 °C. Take `Oc1ccc(-c2noc(C3(COc4c(F)cccc4OC(F)(F)F)CC3)c2-c2ccccc2)cc1`: the melting point fell in the range of 132 to 133 °C. Next, `COC(=O)C(=O)c1ccc(OCCOc2cc3ccccc3c3ccccc23)cc1`: 147 to 148 °C; `C=CCc1cc2c(c(CC=C)c1O)N(CC=Cc1ccccc1)C(=O)CC2`: 132 to 138 °C.

Molecule `CC(OC(=O)c1cn(-c2ccc(F)cc2)c(-c2ccc(N(C)C)cc2)cc1=O)OC(=O)C(C)(C)C` (stereo not drawn) came in with a melting point of 117 to 120 °C. In turn, `CCOC(=O)c1cc2cc(OC(F)(F)F)cc(N)c2[nH]1` had a melting point of 190 to 191 °C. The result for `CCCc1nc(C)n2c(=O)n(CC(=O)O)nc2c1Cc1ccc(NC(=O)c2ccccc2S(=O)(=O)O)cc1` reads 296 to 300 °C; that for `C=CCNCc1c(CO)nc2n1-c1ccc(Cl)cc1C(c1ccccc1F)=NC2`, 140 °C. Next, `O=P(O)(O)C(NCCCCOc1ccccc1)P(=O)(O)O`: 206 to 208 °C. Next, `Cc1nnc2n1-c1ccccc1C(c1ccccc1C(F)(F)F)OC2` (stereo not drawn): 265 to 269 °C; `COc1ccc(N(c2ccccc2)c2ccc(-c3ccc(-c4ccc(N(c5ccccc5)c5ccc(OC)cc5C)cc4)cc3)cc2)c(C)c1`: 181 to 183 °C.

Regarding `CC(C)=CCNc1ncnc2nc(N(C)C)[nH]c12`, the melting point lay within 246 to 249 °C. The result for `Cc1cccn2ccnc12` reads 150 to 152 °C; that for `COc1ccc(C=CCN2CCc3nc(N)sc3CC2)cc1`, 155 to 160 °C. Next, `COc1cc2c(cc1OC)CN(C(c1ccccc1)c1ccccc1)C2`: 126 to 128 °C; `Cc1cccc(-c2nc3ccc(Cl)nn3c2-c2ccnc(N)c2)c1`: 247 to 248 °C.

For the molecule `Cc1ccc2c(c1)C=Cc1cc(C)ccc1C2c1cn(Cc2ccc(C(=O)O)o2)c(=O)[nH]c1=S`, the melting point is 290 to 292 °C. Molecule `CC1Cc2c(c3cccnc3n(-c3ccccc3)c2=O)O1` (stereo not drawn) yielded a melting point of 223 to 224 °C. Molecule `CC(C)(c1ccc2ncccc2c1)n1nnc2ccc(-c3ccc(C(N)=O)c(F)c3)nc21` had a melting point of 127 to 130 °C. The molecule `CCn1cc(C=O)c2nc(N3CCN(Cc4ccccc4)CC3)ncc2c1=O` showed a melting point of 152 °C.

On to `Oc1ccc(O)c(F)c1`, for which the melting point fell in the range of 33 to 35 °C. Consider `O=C(NCC1Cc2ccc3c(c2O1)CCC3)OCc1ccccc1` (stereo not drawn), for which the melting point lay in the range of 99 to 101 °C. The result for `CCCc1[nH]c2ccc(OC)cc2c1/C=C/C(=O)c1ccncc1` reads 221 to 224 °C; that for `CCCCCCC(=O)c1ccc(O)cc1`, 93 °C; that for `CCN(C(=O)N1CCN(c2cc(Cl)cc(Cl)c2)CC1)c1nc2ccccc2nc1OC`, 146 to 148 °C. In the case of `N#Cc1cccc(-c2ccc(-c3cccc(C#N)c3)o2)c1`, the melting point was in the range of 163 to 164 °C. Next, `O=C(O)CCCc1ccc(S(=O)(=O)Nc2ccc(Cl)cc2)cn1`: 150 to 152 °C; `O=C(NC1CCC2(O)C3Cc4ccc(O)c5c4C2(CCN3CC2CC2)C1O5)c1ccccc1` (stereo not drawn): 182 to 185 °C. As for `NNc1ccc(CS(N)(=O)=O)cc1`, the melting point is 156 to 158 °C. `Cc1nc2c(C(F)(F)F)cccc2c(=O)n1C1CCC(=O)NC1=O` (stereo not drawn) gave a melting point of 351 to 353 °C.

For the molecule `CCN(CC)C(=O)Cc1cc(C(C)(C)C)c(O)c(C(C)(C)C)c1`, the melting point was 111 to 113 °C. Next, `COC(=O)c1cc(Cl)c2c(c1OC)CCCN2`: 105 to 108 °C.

In turn, `CCCCn1nc(-c2ccc(F)cc2)c(-c2ccc(S(C)(=O)=O)cc2)cc1=O` registered a melting point of 111 to 113 °C.

The molecule `CNc1cc(Cl)ccc1C(C)=O` showed a melting point of 65 to 66 °C. Next, `CC(C)(C)OC(=O)NCCCCCC(=O)Nc1cccnc1`: 96 to 98 °C; `O=C(O)C1=Cc2ccc(Br)cc2OC1C(F)(F)F` (stereo not drawn): 198 to 200 °C. Molecule `CC(Cc1ccc(OCc2cccc(C(F)(F)F)c2)cc1)NC(=O)CC(c1ccccc1)c1ccccc1` (stereo not drawn) had a melting point of 110 to 113 °C. With `Cc1ccc(S(=O)(=O)N2C=Cc3cccc(-n4cccc4)c3C2C#N)cc1` (stereo not drawn), the melting point came out at 160 °C.

The molecule `Cc1cc(C(=O)Nc2ccccc2O)cc(Cl)c1O` displayed a melting point of 192 to 194 °C. `CCOC(=O)CNc1cnc(-c2ccc(OCc3ccccc3)c(C34CC5CC(CC(C5)C3)C4)c2)nc1` returned a melting point of 153 to 156 °C. The molecule `Cn1c(C(=O)O)c(-c2ccc(F)cc2)c2ccsc2c1=O` yielded a melting point of 205 °C. As to `COc1ccc(N2CCN(c3c(C)c(C)c4c(c3C)C(N3CCCCC3)C(C)(C)O4)CC2)cc1` (stereo not drawn), the melting point lay in the range of 146 to 148 °C. The result for `OCC1CCC(c2ccccc2)CC1` (stereo not drawn) reads 47.3 to 48.5 °C; that for `CN1CCC(Oc2cnccn2)(c2ccccc2)CC1`, 115 to 116 °C.

`NN1C=NNC1=Cc1ccccc1` had a melting point of 171 to 173 °C. As to `CC(C)NC(=O)CS(=O)CC(=O)c1ccc(-c2ccccc2)cc1` (stereo not drawn), the melting point came to 138 °C. The result for `Cc1ccc(C(O)C2OC(n3cc(C)c(=O)[nH]c3=O)CC2(O)c2ccc(C)cc2)cc1` (stereo not drawn) reads 194 to 196 °C; that for `Cc1cc(-n2c(C)ccc2-c2ccc(S(C)(=O)=O)c(F)c2)ccc1-c1cscn1`, 179 to 181 °C; that for `Cc1c(O)c(=O)ccn1C(C)C`, 239 to 242 °C.

In turn, `CCOC(=O)Nc1ccc(C(C)C(O)(Cn2cncn2)c2ccc(F)cc2F)cn1` (stereo not drawn) gave a melting point of 167 to 168 °C. Next, `COc1cccc(CC(=O)Nc2ccc3sc(C)nc3c2Cl)c1`: 147 to 148 °C; `CC(C)CNc1c([N+](=O)[O-])c2nnnn2c2ccccc12`: 152 to 154 °C. For `O=c1cc(NCc2ccccc2)c(-c2nc[nH]n2)nn1-c1ccccc1`, the melting point lay within 192 to 193 °C. The result for `Cc1oc(-c2ccco2)nc1COc1ccc(CON=C(CCCCC(=O)O)c2ccccc2)cc1` reads 112 to 113 °C. With `COc1ccc2c(c1)C(=O)C(=Cc1ccccc1)C2`, the melting point lay within 131 to 133 °C. The result for `CCc1nccc2[nH]c(=O)ccc12` reads 186 to 188 °C; that for `NC(=O)c1cccc(C(=O)Nc2ccc(-n3nc(C(F)(F)F)cc3C(F)(F)F)cc2)c1`, 244 to 245 °C.

One may read the melting point as the temperature of the solid-liquid transition.
